Assay results: patent US20260207629A1, “COMPOSITION FOR IMPROVING SKIN COMPRISING CARNITINESALICYLATE AS AN ACTIVE INGREDIENT” (LG H&H CO., LTD., priority 2022, published 2026)
Blank lines part the entries; values can stand above or below the compound they belong to.

Legend:
MMP-1 = assay: Inhibition of MMP-1 expression induced by C. acnes lysate in HaCaT cells (ELISA); type: cell-based, human; conditions: magnolol 4 μg/ml, 4 h pretreatment, C. acnes lysate 30 min, vs positive control
Procedure: (§1) A human epidermal keratinocyte cell line (HaCaT cells) was sub-cultured at 37° C. in a humidified atmosphere containing 5% CO2 and 95% air. The medium used was DMEM containing 10% FBS (Gibco; Thermo Fisher, Waltham MA), penicillin (100 U/ml, Gibco), and streptomycin ([…], Gibco). Separately, the acne pathogen C. acnes ribotype 5 (Strain HL043PA1) (1.36×10^9 CFU/ml, OD=1.7) was cultured to prepare a C. acnes lysate. The C. acnes lysate was used to induce the expression of MMP-1 and VEGF in HaCaT cells.
(§2) Thereafter, the C. acnes lysate and the medium were mixed at a mass ratio of 3:7, and the resulting mixture was applied to HaCaT cells for 30 minutes. The supernatant was collected, and the concentrations of MMP-1 and VEGF were measured by enzyme-linked immunosorbent assay (ELISA) (R&D Systems Inc., Minneapolis, MN) using the manufacturer's protocol. […] The experimental group treated only with the C. acnes lysate was set as the positive control group, and the reduction value of the sample treatment group compared to the positive control group was calculated and is shown in Table 3. […]
(§3) Colby Equation: E=(A+B)−(A*B/100); E: predicted value; A: efficacy of active ingredient A; B: efficacy of active ingredient B. When the actual measurement value is greater than the predicted value, it is determined that there is a synergistic effect.

stratum corneum (SC) = assay: Stratum corneum softening, tape stripping test on volunteer's skin; type: in vivo, human; conditions: magnolol 0.2 mg/ml, 50 μl solution on skin for 3 h, SC protein increase relative to control
Procedure: To evaluate the softening efficacy on the stratum corneum (SC) of CA-SA and magnolol, a tape stripping test was performed on the SC.
After marking an application site on a volunteer's skin in advance, 50 μl of a solution including CA-SA and/or magnolol at the concentration shown in Table 4 was applied, and after three hours the skin surface was wiped to remove any remaining substances. A solution that included none of the evaluated substances was used as a control. A D-squame adhesive tape disk (CuDerm, Dallas, TX) was attached to the test site, and a cylindrical weight was used to apply a pressure of 150 g/cm^2 for three seconds, and then the pressure was removed and the tape was removed from the skin. Three tape strips were obtained from each marked site.
After collecting the tape strips in a polystyrene petri dish (Thermo Fisher), in order to perform keratinolysis quantification, 1 ml of 1 M NaOH was added to each petri dish and the dish was shaken for two hours. Thereafter, 75 μl of the solution was transferred to three wells (96-well plate, Corning), and each was neutralized with an equivalent volume of 1 M HCl. […] After 15 minutes, the optical density at 595 nm (OD 595 nm) was measured using an empty well as a correction value, and the amount of SC protein was quantified using a γ-globulin standard (Bio-Rad). […]

SZ95 cells = assay: Lipid production inhibition in testosterone-treated SZ95 cells (Nile red); type: cell-based; conditions: magnolol 0.5 μg/ml, 48 h, vs positive control
Procedure: It was evaluated whether CA-SA and/or magnolol could control sebum secretion by inhibiting lipid production.
SZ95 cells, which are […] sebaceous cells, were cultured and maintained in a humidified atmosphere containing 5% CO2 and 95% air at 37° C. The medium used was Dulbecco's Modified Eagle Medium (DMEM)/Ham's F12 medium (Gibco) supplemented with 10% fetal bovine serum (FBS) and 5 ng/ml recombinant human epidermal growth factor (Invitrogen; Thermo Fisher, Waltham MA). After performing sub-confluent culture, cells were harvested with 0.05% trypsin-ethylenediaminetetraacetic acid (EDTA) (Gibco) and passaged, and cells obtained from the second passage were used.
The cells were seeded at 1×10^5 cells per well in a 24-well plate (Greiner, Frickenhausen, Germany) and cultured at 37° C. and 5% CO2 for 24 h. Thereafter, the cells were treated with 2×10^−8 M testosterone for 24 h to stimulate lipid production. […]
The well plate was covered with aluminum foil to block light, and fluorescence was measured at Ex/Em=550/580 nm using a microplate reader (BioTek Instruments, Inc.). The percentage value of the absolute fluorescence unit compared to the negative control group was used as the result value. Thereafter, the reduction value of the sample treatment group compared to the positive control group was calculated and is shown in Table 2.

[1] = test system: erythema induced by 1% sodium dodecyl sulfate (SDS); assay: Skin erythema recovery after SDS erythema induction (Mexameter erythema index); type: in vivo, human; conditions: emulsion with magnolol 0.02% by weight, twice a day for 12 days, forearm, vs vehicle application group
Procedure: To evaluate the erythema recovery efficacy, an erythema index was evaluated before erythema induction, after erythema induction, and 12 days after product use in nine volunteers aged 25 to 35 years. Erythema was induced by applying 1% sodium dodecyl sulfate (SDS) dilution to the forearm for 24 hours, and an emulsion comprising CA-SA 5% by weight of, an emulsion comprising magnolol 0.02% by weight of, an emulsion comprising 5% CA-SA and 0.02% magnolol by weight, and an emulsion containing neither CA-SA nor magnolol (vehicle) was repeatedly applied to the same area twice a day, in the morning and evening, for 12 days.
The erythema index was measured using a Mexameter (MX 18, Courage+Khazaka electronic GmbH, Germany). The erythema index recovery rate was calculated using the following formula, and the effect was compared in terms of the percentage value increase in the erythema index recovery rate of the emulsion application group including each sample relative to the erythema index recovery rate of the vehicle application group (relative recovery rate).
In order to confirm the synergistic effect of CA-SA and magnolol, the predicted values (Colby values) and the actual measurement values were compared using the Colby Equation in the same manner as in Experimental Example 3, and the results are shown in Table 5.

VEGF = assay: Inhibition of VEGF expression induced by C. acnes lysate in HaCaT cells (ELISA); type: cell-based, human; conditions: magnolol 4 μg/ml, 4 h pretreatment, C. acnes lysate 30 min, vs positive control
Procedure: as §1, §2, §3

[2] = test system: C. acnes ribotype 5 (strain HL043PA1); assay: Minimum inhibitory concentration (MIC) against C. acnes; type: cell-based; conditions: Cutibacterium acnes; C. acnes ribotype 5 strain HL043PA1, 72 h incubation, OD600, growth inhibited by more than 90%
Procedure: The minimum inhibitory concentrations (MICs) of CA-SA and magnolol against C. acnes were measured and compared with an antibiotic (clindamycin) and non-antibiotic agents (benzoyl peroxide and salicylic acid).
C. acnes ribotype 5 (strain HL043PA1) was cultured in a reinforced Clostridial broth medium (BD Diagnostics, Franklin Lakes, NJ) in an anaerobic environment (37° C., 175 rpm). Thereafter, each sample was dissolved in water or dimethyl sulfoxide (DMSO) and serially diluted two-fold, and 7.5 μL of the resulting solution was added to 142.5 μL of a bacterial suspension containing 7.5×10^5 CFU/mL, and incubated for 72 h. Thereafter, turbidity (OD600) was measured (Synergy 2 Multi-Mode Microplate Reader (BioTek Instrument, Winooski, VT)) to determine the MIC that inhibited bacterial growth by more than 90%.

SMILES: C=CCc1ccc(O)c(-c2cc(CC=C)ccc2O)c1 [Magnolol, magnolol]
MMP-1 reduction value (MMP-1): 33.6% | SC exfoliation rate (stratum corneum (SC)): −22.3% | Reduction value (lipid production) (SZ95 cells): 3.8% | Relative recovery rate (erythema index) [1]: 16.2% | VEGF reduction value (VEGF): 21.2%

MIC [2]: 2500 µg/mL
SMILES: O=C(OOC(=O)c1ccccc1)c1ccccc1 [Benzoyl peroxide, benzoyl peroxide]

MIC [2]: 156 µg/mL
SMILES: CCC[C@@H]1C[C@@H](C(=O)N[C@@H]([C@H]2O[C@H](SC)[C@H](O)[C@@H](O)[C@H]2O)[C@H](C)Cl)N(C)C1 [Clindamycin, clindamycin]

MIC [2]: 4000 to 8000 µg/mL
SMILES: O=C(O)c1ccccc1O [Salicylic acid, salicylic acid]
